In publication PMC6348443 (Journal of Medicinal Chemistry, 2018):
Where a name gives a salt, the structure may show the parent alone. Read-outs that look alike come from different tables or passages of the source.

Tests used:
[1] = molecular target: T1, DOR (Homo sapiens, UniProt P41143); experiment: [35S]GTPγS binding assay, CHO-hDOR membranes; assay type: biochemical; settings: for EC50: [35S]GTPγS, CHO human DOR membranes; for Emax: relative to reference full agonist DPDPE, read-out: DOR % stim.
T1 construct: host or cells: CHO (CHO-hDOR)
Procedure: (§1) Efficacies are presented as percentage stimulation relative to the standard full agonists, [D-Ala^2,N-Me-Phe4,Gly-ol^5]enkephalin (DAMGO for MOR),[53] [D-Pen^2,D-Pen^5]enkephalin (DPDPE for DOR)[54] and N-methyl-2-phenyl-N-[(5R,7S,8S)-7-(pyrrolidin-1-yl)-1-oxaspiro[4.5]dec-8-yl]acetamide (U69,593 for KOR).[55]
(§2) Membranes from CHO cells expressing human opioid receptors were prepared in 50 mM Tris-HCl buffer (pH 7.7) according to a previously described procedure.[64] Cells expressing human opioid receptors grown at confluence were removed from the culture plates by scraping, homogenized in 50 mM Tris buffer (pH 7.7), using a Polytron homogenizer, then centrifuged once and washed by an additional centrifugation at 27 000g for 15 min, at 4 °C. The final pellet was resuspended in Tris buffer and stored at −80 °C until use. Protein content of brain and cell membrane preparation homogenates was determined by the method of Bradford using bovine serum albumin as the standard.[65]
(§3) Binding of [^35S]GTPγS to membranes from CHO cells stably expressing the human opioid receptors was conducted according to the published procedures.[49],[64] Cell membranes (5–10 μg) in 20 mM HEPES, 10 mM MgCl2, and 100 mM NaCl (pH 7.4) were incubated with 0.05 nM [^35S]GTPγS, 10 μM GDP, and various concentrations of test compound in a final volume of 1 mL, for 60 min at 25 °C. Nonspecific binding was determined using 10 μM GTPγS, and the basal binding was determined in the absence of test ligand. Samples are filtered over glass Whatman glass GF/B fiber filters and counted as described for binding assays. All experiments were performed in duplicate and repeated at least three times.
(§4) Data were analyzed and graphically processed using the GraphPad Prism 5.0 Software (GraphPad Prism Software Inc., San Diego, CA). For in vitro assays, inhibition constant (Ki in nM), potency (EC50 in nM), and efficacy (% stimulation) values were determined from concentration–response curves by nonlinear regression analysis. The Ki values were determined by the method of Cheng and Prusoff.[66] In the [^35S]GTPγS binding assays, efficacy was determined relative to the reference full opioid agonists, DAMGO (MOR), DPDPE (DOR), and U69,593 (KOR). In vitro data are presented as mean ± SEM of three to four independent experiments each performed in duplicate. […] Each experimental group included six to seven mice. Data were statistically evaluated using one-way ANOVA with Tukey’s post hoc test for multiple comparisons with significance set at P < 0.05.

[2] = molecular target: T2, MOR (Homo sapiens, UniProt P35372); experiment: [35S]GTPγS binding assay, CHO-hMOR membranes; assay type: biochemical; settings: for Emax: read-out: MOR % stim.
T2 construct: host or cells: CHO (CHO-hMOR)
Procedure: as §1, §2, §3, §4

[3] = molecular target: T1, DOR; experiment: competition radioligand binding, CHO cell membranes expressing human DOR, [3H]diprenorphine
Procedure: as §2
(§5) Rat brain membranes were incubated with either [^3H]DAMGO (1 nM, 45 min, 35 °C) or [^3H][Ile^5,6]deltorphin II (0.5 nM, 45 min, 35 °C) for labeling MOR or DOR receptors, respectively. Guinea-pig brain membranes were incubated with [^3H]U69,593 (1 nM, 30 min, 30 °C) for labeling KOR. Binding assays with CHO cell membranes were conducted at 25 °C for 60 min using [^3H]DAMGO (1 nM) or [^3H]diprenorphine (0.2 nM) for labeling MOR or DOR, respectively. Nonspecific binding was determined using 10 μM naloxone (rodent brain) or 1–10 μM of the unlabeled counterpart of each radioligand (CHO cells). Reactions were terminated by rapid filtration through Whatman glass fiber GF/C filters. Filters were washed three times with 5 mL of ice-cold 50 mM Tris-HCl buffer (pH 7.4) using a Brandel M24R cell harvester (Gaithersburg, MD). Radioactivity retained on the filters was counted by liquid scintillation counting using a Beckman Coulter LS6500 (Beckman Coulter Inc., Fullerton, CA). All binding experiments were performed in duplicate and repeated at least three times.
(§6) aDetermined in competition radioligand binding assays using CHO cell membranes expressing
(§7) human MOR and DOR. Values represent the mean ± SEM of three independent experiments each

[4] = molecular target: T3, KOR (Homo sapiens, UniProt P41145); experiment: [35S]GTPγS binding assay, CHO-hKOR membranes; assay type: biochemical; settings: for EC50: [35S]GTPγS, CHO human KOR membranes, read-out: KOR EC50; for Emax: relative to reference full agonist U69,593, read-out: KOR % stim.; for functional profile at KOR (full/partial agonist): partial agonist <85% of the response to U69,593
T3 construct: host or cells: CHO (CHO-hKOR)
Procedure: as §1, §2, §3, §4

[5] = molecular target: T4, DOR (Rattus norvegicus, UniProt P33533); experiment: competition radioligand binding, rat brain membranes, [3H][Ile5,6]deltorphin II; settings: rat brain membranes; read-out: opioid receptor binding Ki DOR
T4 construct: Membranes were prepared from Sprague-Dawley rat brains or guinea-pig brains according to the described procedures; tissue Labortierkunde und Laborgenetik, Medizinische Universität Wien; host or cells: Sprague-Dawley rat brain without cerebella
Procedure: (§8) Competition binding assays using rat brain (MOR and DOR) and guinea-pig brain (KOR) membranes (Table 1) were performed according to published procedures.[44],[49] […] In addition, we have assessed binding at the human opioid receptors stably transfected in Chinese hamster ovary (CHO) cells (Table S1).
(§9) Membranes were prepared from Sprague-Dawley rat brains or guinea-pig brains according to the described procedures.[44],[45] Brains without cerebella were homogenized on ice in 5 vol/wt of ice-cold 50 mM Tris-HCl buffer (pH 7.4) and diluted in 30 vol/wt of the same buffer. After centrifugation at 40 000g for 20 min at 4 °C, the pellets were resuspended in 30 vol/wt of 50 mM Tris-HCl buffer (pH 7.4) and incubated at 37 °C for 30 min. The centrifugation step described above was repeated, and the final pellets were resuspended in 5 vol/wt of 50 mM Tris-HCl buffer (pH 7.4) containing 0.32 M sucrose and stored at −80 °C until use.
as §5, §4

[6] = molecular target: T5, KOR (Cavia porcellus, UniProt P41144); experiment: competition radioligand binding, guinea-pig brain membranes, [3H]U69,593; settings: guinea-pig brain membranes; read-out: opioid receptor binding Ki KOR
T5 construct: Membranes were prepared from Sprague-Dawley rat brains or guinea-pig brains according to the described procedures; tissue Labortierkunde und Laborgenetik, Medizinische Universität Wien; host or cells: guinea-pig brain without cerebella
Procedure: as §8, §9, §5, §4

[7] = molecular target: T2, MOR; experiment: competition radioligand binding, CHO cell membranes expressing human MOR, [3H]DAMGO
Procedure: as §2, §5, §6, §7

[8] = test system: male CD1 mice; experiment: acetic acid-induced writhing assay after sc administration; assay type: in vivo, mouse; settings: for ED50: Mus musculus, 0.5 h, read-out: ED50 (95% CI), mice, sc, inhibition of writhing 30 min after drug administration; for ED50 (95% CI): mice, inhibition of writhing 30 min after drug administration; for increased antinociceptive potency vs comparator: writhing assay, 3a vs 3b, 4a vs 4b, 16b vs 7a (so in the source)
Procedure: Solutions of test compounds were prepared in sterile physiological 0.9% saline and further diluted to working doses in saline solution. Test compounds or saline (control) were administered by sc route in a volume of 10 μL/1 g of body weight. All doses are expressed in terms of salts. Separate groups of mice received the respective dose of compound, and individual mice were only used once for behavioral testing.
Writhing was induced in male CD1 mice by ip injection of a 0.6% acetic acid aqueous solution as described previously.[48],[62] Groups of mice were administered sc different doses of test compound or saline (control), and 5 min prior to testing (25 min after drug or saline), each animal received an ip injection of acetic acid solution. Each mouse was placed in individual transparent Plexiglas chambers, and the number of writhes was counted during a 10 min observation period. […] For the antagonism study, naloxone methiodide was sc co-administered with the respective opioid agonist, and writhing was assessed as described above.
as §4

[9] = molecular target: T6, MOR (Rattus norvegicus, UniProt P33535); experiment: competition radioligand binding, rat brain membranes, [3H]DAMGO; settings: for Ki: rat brain membranes, read-out: opioid receptor binding Ki MOR; for Ki ratio MOR/DOR/KOR: from Ki in rat (MOR, DOR) and guinea-pig (KOR) brain membranes
T6 construct: Membranes were prepared from Sprague-Dawley rat brains or guinea-pig brains according to the described procedures; tissue Labortierkunde und Laborgenetik, Medizinische Universität Wien; host or cells: Sprague-Dawley rat brain without cerebella
Procedure: as §8, §9, §5, §4

[10] = relative to reference full agonist DAMGO
[11] = [35S]GTPγS, CHO human MOR membranes, read-out: MOR EC50

| SMILES | EC50 [1] | Emax [1] | Emax [2, 10] | Ki [3] | EC50 [4] | Emax [4] | Ki [5] | Ki [6] | functional profile at KOR (full/partial agonist) [4] | ED50 [8] | EC50 [2, 11] | increased antinociceptive potency vs comparator [8] | Ki [9] | further results |
| --- | --- | --- | --- | --- | --- | --- | --- | --- | --- | --- | --- | --- | --- | --- |
| CO[C@@]12CC[C@H](NC(C)C(=O)O)[C@@H]3Oc4c(O)ccc5c4[C@@]31CCN(C)[C@@H]2C5 (stereo in doubt) [Compound 15a, (2S)-2-[(4,5α-Epoxy-3-hydroxy-14β-methoxy-17-methylmorphinan-6α-yl)amino]propanoic Acid Dihydrochloride] | 24.3 ± 5.3 nM | 106 ± 7% | 100 ± 8% | 14.9 ± 1.9 nM | 254 ± 118 nM | 67 ± 13% | 10.4 ± 0.01 nM | 71.5 ± 9.6 nM | – | – | – | – | – | – |
| CO[C@@]12CC[C@@H](NC(C)C(=O)O)[C@@H]3Oc4c(O)ccc5c4[C@@]31CCN(C)[C@@H]2C5 (stereo in doubt) [Compound 15b, (2S)-2-[(4,5α-Epoxy-3-hydroxy-14β-methoxy-17-methylmorphinan-6β-yl)amino]propanoic Acid Dihydrochloride] | 5.46 ± 2.68 nM | 106 ± 6% | 102 ± 9% | 11.5 ± 2.6 nM | 1000 ± 192 nM | 86 ± 2% | 11.3 ± 0.9 nM | 142 ± 33 nM | full agonists | – | – | – | – | increased agonist potency at DOR vs MOR ([1]; [35S]GTPγS EC50): 2–4 times |
| CO[C@@]12CC[C@H](NCC(=O)O)[C@@H]3Oc4c(O)ccc5c4[C@@]31CCN(C)[C@@H]2C5 [Compound 2a] | – | – | 99 ± 4% | 18.2 ± 6.1 nM | 399 ± 119 nM | 87 ± 4% | – | – | full agonists | 0.0357 mg/kg | 1.16 ± 0.59 nM | – | – | Ki [7]: 0.79 ± 0.08 nM |
| CO[C@@]12CC[C@H](N[C@@H](C)C(=O)O)[C@@H]3Oc4c(O)ccc5c4[C@@]31CCN(C)[C@@H]2C5 [Compound 3a] | 9.55 ± 4.47 nM | 93 ± 9% | 97 ± 5% | 26 ± 3.5 nM | 214 ± 71 nM | 51 ± 3% | – | – | – | < 0.02 mg/kg | – | 5 times | – | ED50 (95% CI) [8]: 16.0 (5.45–47.0) μg/kg |
| CO[C@@]12CC[C@@H](N[C@@H](C)C(=O)O)[C@@H]3Oc4c(O)ccc5c4[C@@]31CCN(C)[C@@H]2C5 [Compound 3b] | 5.2 ± 1.7 nM | 104 ± 6% | 87 ± 6% | 8.43 ± 2.1 nM | 392 ± 160 nM | 64 ± 9% | – | – | partial agonist | 0.0863 mg/kg | – | – | – | – |
| CO[C@@]12CC[C@H](N[C@@H](Cc3ccccc3)C(=O)O)[C@@H]3Oc4c(O)ccc5c4[C@@]31CCN(C)[C@@H]2C5 [Compound 4a] | 0.39 ± 0.19 nM | 102 ± 2% | 93 ± 8% | 3.61 ± 1.2 nM | 219 ± 2 nM | 39 ± 12% | – | – | partial agonist | 0.0311 mg/kg | 0.38 ± 0.19 nM | 19 times | – | Ki [7]: 0.81 ± 0.2 nM; EC50 [2]: < 1 nM |
| CO[C@@]12CC[C@@H](N[C@@H](C(=O)O)C(C)C)[C@@H]3Oc4c(O)ccc5c4[C@@]31CCN(C)[C@@H]2C5 [Compound 16b] | 1.3 ± 0.64 nM | 99 ± 0.2% | 101% | – | 1280 ± 283 nM | 98 ± 16% | 1.68 ± 0.16 nM | 159 ± 17 nM | full agonists | < 0.02 mg/kg | 2.38 ± 0.77 nM | 8 times | 1.02 ± 0.07 nM | ED50 (95% CI) [8]: 14.0 (5.90–33.3) μg/kg; increase in MOR binding affinity vs comparator ([9]; rat brain, 17b vs 4b, 16a/b vs 7a/b, 22a/b vs 7a, 7b and 9b, 14a vs 14b): 2–3 times; functional profile at MOR (full/partial agonist) ([2]; full agonist ≥85% of the response to DAMGO): full agonist; MOR % stim. [2, 10]: 101 ± 5% |
| CO[C@@]12CC[C@H](NCCC(=O)O)[C@@H]3Oc4c(O)ccc5c4[C@@]31CCN(C)[C@@H]2C5 [Compound 20a, 3-[(4,5α-Epoxy-3-hydroxy-14β-methoxy-17-methylmorphinan-6α-yl)amino]propionic Acid Dihydrochloride] | 96.4 ± 8.7 nM | 97 ± 2% | 99 ± 7% | – | 186 ± 15 nM | 78 ± 9% | 60 ± 1.9 nM | 182 ± 8 nM | – | 0.0312 mg/kg | 3.52 ± 1.65 nM | – | 1.3 ± 0.08 nM | Ki ratio MOR/DOR/KOR [9]: 1/46/140 |
| CO[C@@]12CC[C@H](NCCCC(=O)O)[C@@H]3Oc4c(O)ccc5c4[C@@]31CCN(C)[C@@H]2C5 [Compound 21a] | 34.4 ± 6.5 nM | 103 ± 1% | 103 ± 4% | – | 2030 ± 253 nM | 104 ± 9% | 12.5 ± 0.7 nM | 45.6 ± 4.4 nM | – | 0.0419 mg/kg | 2.88 ± 0.82 nM | – | 0.77 ± 0.07 nM | Ki ratio MOR/DOR/KOR [9]: 1/16/59 |
